# Measurements: patent US20040067955A1, “Pyridazinone compound and pharmaceutical use thereof” (Fujisawa Pharmaceutical Co. Ltd., priority 2002, published 2004)
# Molecular target: T1, human A1 receptor (Homo sapiens, UniProt P30542)
# T1 sequence (P30542 1-326): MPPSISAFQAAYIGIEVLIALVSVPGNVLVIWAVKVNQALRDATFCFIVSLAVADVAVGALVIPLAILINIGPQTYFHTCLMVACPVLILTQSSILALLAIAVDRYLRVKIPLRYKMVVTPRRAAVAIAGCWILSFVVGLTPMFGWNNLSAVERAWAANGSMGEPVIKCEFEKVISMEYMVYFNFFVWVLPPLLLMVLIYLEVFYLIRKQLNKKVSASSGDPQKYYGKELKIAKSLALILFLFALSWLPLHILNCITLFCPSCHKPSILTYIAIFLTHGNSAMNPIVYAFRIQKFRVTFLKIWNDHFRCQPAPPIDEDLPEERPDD
# Test: Adenosine antagonistic activity: radioligand binding with [3H]DPCPX (4.5 nM)
# Conditions: not given
# Protocol: (§1) The adenosine antagonistic activity [Ki(nM)] of the test compound was examined by radioligand binding techniques using 8-cyclopentyl-1,3-dipropylxanthine, [dipropyl-2,3-^3H (N)] ([^3H]DPCPX, 4.5 nM) for human A1 receptor and [^3H]CGS 21680 (20 nM) for human A2a receptor.
row,Ki [nM],Compound
1,0.41,"CC(C)n1nc(-c2cc(Br)c(N)nc2-c2ccccc2)ccc1=O [Example 33, 6-(6-amino-5-bromo-2-phenyl-3-pyridyl)-2-isopropyl-3(2H)-pyridazinone]"
2,4.44,"CC(C)n1nc(-c2cc(-c3nc(-c4ccccc4)cs3)c(N)nc2-c2ccccc2)ccc1=O [Example 40, 6-[6-Amino-5-(4-phenyl-1,3-thiazol-2-yl)-2-phenyl-3-pyridyl]-2-isopropyl-3(2H)-pyridazinone]"
3,0.43,"CC(C)n1nc(-c2cc(O)cnc2-c2ccccc2)ccc1=O [Example 53, 6-(5-hydroxy-2-phenyl-3-pyridyl)-2-isopropyl-3(2H)-pyridazinone]"
4,6.42,"CC(C)n1nc(-c2cc(Cl)c(N)nc2-c2ccc(F)cc2)ccc1=O [Example 74, 6-[6-Amino-5-chloro-2-(4-fluorophenyl)-3-pyridyl]-2-isopropyl-3(2H)-pyridazinone]"

# Molecular target: human A2a receptor (Homo sapiens, UniProt P29274)
# Test: Adenosine antagonistic activity: radioligand binding with [3H]CGS 21680 (20 nM)
# Conditions: not given
# Protocol: as §1
# human A2a receptor, sequence (P29274 whole entry): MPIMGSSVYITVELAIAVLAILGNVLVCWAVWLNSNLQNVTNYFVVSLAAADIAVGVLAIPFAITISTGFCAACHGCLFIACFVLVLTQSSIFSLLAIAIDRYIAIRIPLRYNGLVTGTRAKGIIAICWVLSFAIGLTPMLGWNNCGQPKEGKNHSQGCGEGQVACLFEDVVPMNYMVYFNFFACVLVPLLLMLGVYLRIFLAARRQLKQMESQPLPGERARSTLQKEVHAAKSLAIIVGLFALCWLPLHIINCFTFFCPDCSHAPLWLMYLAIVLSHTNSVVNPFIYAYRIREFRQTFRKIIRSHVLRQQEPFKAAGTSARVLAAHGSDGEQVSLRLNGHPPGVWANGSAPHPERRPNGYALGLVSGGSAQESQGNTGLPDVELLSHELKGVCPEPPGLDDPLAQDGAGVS
row,Ki [nM],Compound
1,0.91,"CC(C)n1nc(-c2cc(Br)c(N)nc2-c2ccccc2)ccc1=O [Example 33, 6-(6-amino-5-bromo-2-phenyl-3-pyridyl)-2-isopropyl-3(2H)-pyridazinone]"
2,6.58,"CC(C)n1nc(-c2cc(-c3nc(-c4ccccc4)cs3)c(N)nc2-c2ccccc2)ccc1=O [Example 40, 6-[6-Amino-5-(4-phenyl-1,3-thiazol-2-yl)-2-phenyl-3-pyridyl]-2-isopropyl-3(2H)-pyridazinone]"
3,3.87,"CC(C)n1nc(-c2cc(O)cnc2-c2ccccc2)ccc1=O [Example 53, 6-(5-hydroxy-2-phenyl-3-pyridyl)-2-isopropyl-3(2H)-pyridazinone]"
4,1.28,"CC(C)n1nc(-c2cc(Cl)c(N)nc2-c2ccc(F)cc2)ccc1=O [Example 74, 6-[6-Amino-5-chloro-2-(4-fluorophenyl)-3-pyridyl]-2-isopropyl-3(2H)-pyridazinone]"

# Tested on: ddY mice
# Test: Anticatalepsy activity in mouse (haloperidol-induced catalepsy, bar test)
# Format: in vivo
# Conditions: test compound 3.2 mg/kg orally, ddY mice (n=7); haloperidol 0.32 mg/kg i.p. 30 min later; measured 30 min after injection
# Protocol: The test compound (3.2 mg/kg) was administered orally with ddY mice (n=7). Then, haloperidol (0.32 mg/kg) was injected intraperitoneally 30 min. after the administration of the compound. Thirty min. After the injection, the cataleptic responses of mice were measured. The forelimbs of each mouse were placed on a 3 cm high, 3 mm wide horizontal bar, and the duration of cataleptic posture was measured for up to 30 sec.
row,Compound,Manifestation rate of catalepsy (number of mouse)
1,"CC(C)n1nc(-c2cc(Cl)c(N)nc2-c2ccc(F)cc2)ccc1=O [Example 74, 6-[6-Amino-5-chloro-2-(4-fluorophenyl)-3-pyridyl]-2-isopropyl-3(2H)-pyridazinone]",0/7

# Tested on: not given
# Test: not given
# Conditions: not given
row,melting point [°C],Compound
1,107 to 109,"CC(C)n1nc(-c2ccc(=O)[nH]c2-c2ccccc2)ccc1=O [Example 30, 2-isopropyl-6-(6-oxo-2-phenyl-1,6-dihydro-3-pyridyl)-3(2H)-pyridazinone]"
2,137 to 138,"CC(C)n1nc(-c2ccc(OCC(N)=O)nc2-c2ccccc2)ccc1=O [Example 31, 2-{[5-(1-isopropyl-6-oxo-1,6-dihydro-3-pyridazinyl)-6-phenyl-2-pyridyl]oxy}acetamide]"
3,167 to 171,"CC(C)n1nc(-c2ccc(N)nc2-c2ccccc2)ccc1=O [Example 32, 6-(6-amino-2-phenyl-3-pyridyl)-2-isopropyl-3(2H)-pyridazinone]"
4,174 to 176,"CC(C)n1nc(-c2cc(Br)c(N)nc2-c2ccccc2)ccc1=O [Example 33, 6-(6-amino-5-bromo-2-phenyl-3-pyridyl)-2-isopropyl-3(2H)-pyridazinone]"
5,207 to 208,"CC(C)n1nc(-c2cc(Cl)c(N)nc2-c2ccccc2)ccc1=O [Example 34, 6-(6-amino-5-chloro-2-phenyl-3-pyridyl)-2-isopropyl-3 (2H)-pyridazinone]"
6,196 to 197,"CC(C)n1nc(-c2cc(I)c(N)nc2-c2ccccc2)ccc1=O [Example 35, 6-(6-amino-5-iodo-2-phenyl-3-pyridyl)-2-isopropyl-3 (2H)-pyridazinone]"
7,208 to 209,"CC(C)n1nc(-c2cc(-c3ccccc3)c(N)nc2-c2ccccc2)ccc1=O [Example 36, 6-(6-amino-2,5-diphenyl-3-pyridyl)-2-isopropyl-3 (2H)-pyridazinone]"
8,183 to 184,"COC(=O)c1cc(-c2ccc(=O)n(C(C)C)n2)c(-c2ccccc2)nc1OCC(N)=O [Example 50, Methyl 2-carbamoylmethoxy-5-(1-isopropyl-6-oxo-1,6-dihydro-3-pyridazinyl)-6-phenylnicotinate]"
9,186 to 188,"CC(C)n1nc(-c2c(-c3ccccc3)nc(Cl)c(N)c2Cl)ccc1=O [Example 77, 6-(5-amino-4,6-dichloro-2-phenyl-3-pyridyl)-2-isopropyl-3(2H)-pyridazinone]"
10,253 to 254,"CC(C)n1nc(-c2cc(-c3ncnn3C)c(N)nc2-c2ccccc2)ccc1=O [Example 122, 6-[6-amino-5-(1-methyl-1H-1,2,4-triazol-5-yl)-2-phenyl-3-pyridyl]-2-isopropyl-3 (2H)-pyridazinone]"

# Further lines, the molecule ahead of its results:
row,Compound,melting point [°C]
1,"CC(C)n1nc(-c2cc(C#N)c(=O)[nH]c2-c2ccccc2)ccc1=O [Example 1, 5-(1-isopropyl-6-oxo-1,6-dihydro-3-pyridazinyl)-2-oxo-6-phenyl-1,2-dihydro-3-pyridine-carbonitrile]",> 250
2,"CC(C)n1nc(-c2cc(C#N)c(Cl)nc2-c2ccccc2)ccc1=O [Example 2, 2-chloro-5-(1-isopropyl-6-oxo-1,6-dihydro-3-pyridazinyl)-6-phenylnicotinonitrile]",191 to 192
3,"CC(C)n1nc(-c2cc(C(N)=O)c(Cl)nc2-c2ccccc2)ccc1=O [Example 5, 2-chloro-5-(1-isopropyl-6-oxo-1,6-dihydro-3-pyridazinyl)-6-phenylnicotinamide]",199 to 200
4,"CC(C)n1nc(-c2cc(C(N)=O)cnc2-c2ccccc2)ccc1=O [Example 6, 5-(1-isopropyl-6-oxo-1,6-dihydro-3-pyridazinyl)-6-phenylnicotinamide]",229 to 230
5,"CC(C)n1nc(-c2cc(C(N)=O)c(N)nc2-c2ccccc2)ccc1=O [Example 7, 2-Amino-5-(1-isopropyl-6-oxo-1,6-dihydro-3-pyridazinyl)-6-phenylnicotinamide]",> 250
6,"CC(C)n1nc(-c2cc(C#N)cnc2-c2ccccc2)ccc1=O [Example 8, 5-(1-isopropyl-6-oxo-1,6-dihydro-3-pyridazinyl)-6-phenylnicotinonitrile]",133 to 135
7,"COC(=O)c1nc(-c2ccccc2)c(-c2ccc(=O)n(C(C)C)n2)cc1C#N [Example 9, methyl 3-cyano-5-(1-isopropyl-6-oxo-1,6-dihydro-3-pyridazinyl)-6-phenyl-2-pyridinecarboxylate]",136 to 138
8,"COc1nc(-c2ccccc2)c(-c2ccc(=O)n(C(C)C)n2)cc1C#N [Example 10, 5-(1-isopropyl-6-oxo-1,6-dihydro-3-pyridazinyl)-2-methoxy-6-phenylnicotinonitrile]",187 to 189
9,"CC(C)n1nc(-c2cc(C#N)c(C(=O)O)nc2-c2ccccc2)ccc1=O [Example 11, 3-cyano-5-(1-isopropyl-6-oxo-1,6-dihydro-3-pyridazinyl)-6-phenyl-2-pyridinecarboxylic acid]",196 to 198
10,"CC(C)n1nc(-c2cc(C#N)c(C(N)=O)nc2-c2ccccc2)ccc1=O [Example 12, 3-cyano-5-(1-isopropyl-6-oxo-1,6-dihydro-3-pyridazinyl)-6-phenyl-2-pyridinecarboxamide]",221 to 223
11,"CC(C)n1nc(-c2cc(C(=O)O)c(=O)[nH]c2-c2ccccc2)ccc1=O [Example 13, 5-(1-isopropyl-6-oxo-1,6-dihydro-3-pyridazinyl)-2-oxo-6-phenyl-1,2-dihydro-3-pyridinecarboxylic acid]",212 to 215
12,"CNC(=O)c1cnc(-c2ccccc2)c(-c2ccc(=O)n(C(C)C)n2)c1 [Example 15, 5-(1-isopropyl-6-oxo-1,6-dihydro-3-pyridazinyl)-N-methyl-6-phenyl-nicotinamide]",212 to 213
13,"CC(C)n1nc(-c2cc(C(=O)NCc3ccccc3)cnc2-c2ccccc2)ccc1=O [Example 16, N-Benzyl-5-(1-isopropyl-6-oxo-1,6-dihydro-3-pyridazinyl)-6-phenylnicotinamide]",205 to 206
14,"CC(C)n1nc(-c2cc(C(=O)NCc3ccccn3)cnc2-c2ccccc2)ccc1=O [Example 17, 5-(1-Isopropyl-6-oxo-1,6-dihydro-3-pyridazinyl)-6-phenyl-N-(2-pyridylmethyl)nicotinamide]",193 to 194
15,"CC(C)n1nc(-c2cc(C(=O)N3CCOCC3)cnc2-c2ccccc2)ccc1=O [Example 18, 2-Isopropyl-6-[5-(4-morpholinylcarbonyl)-2-phenyl-3-pyridyl]-3 (2H)-pyridazinone]",132 to 133
16,"CC(C)n1nc(-c2cc(C(=O)N3CCN(C)CC3)cnc2-c2ccccc2)ccc1=O [Example 19, 2-Isopropyl-6-{5-[(4-methyl-1-piperazinyl)carbonyl]-2-phenyl-3-pyridyl}-3(2H)-pyridazinone]",165 to 166
17,"CC(C)n1nc(-c2cc(C(=O)NCCO)cnc2-c2ccccc2)ccc1=O [Example 20, N-(2-Hydroxyethyl)-5-(1-isopropyl-6-oxo-1,6-dihydro-3-pyridazinyl)-6-phenylnicotinamide]",165 to 167
18,"CC(C)n1nc(-c2cc(C(=O)NCCN3CCOCC3)cnc2-c2ccccc2)ccc1=O [Example 22, 5-(1-Isopropyl-6-oxo-1,6-dihydro-3-pyridazinyl)-N-[2-(4-morpholinyl)ethyl]-6-phenylnicotinamide]",162 to 163
19,"CC(=O)c1cnc(-c2ccccc2)c(-c2ccc(=O)n(C(C)C)n2)c1 [Example 23, 6-(5-acetyl-2-phenyl-3-pyridyl)-2-isopropyl-3(2H)-pyridazinone]",207 to 208
20,"CC(C)n1nc(-c2cc(N)cnc2-c2ccccc2)ccc1=O [Example 26, 6-(5-amino-2-phenyl-3-pyridyl)-2-isopropyl-3 (2H)-pyridazinone]",147 to 148
21,"CC(=O)Nc1cnc(-c2ccccc2)c(-c2ccc(=O)n(C(C)C)n2)c1 [Example 28, N-[5-(1-Isopropyl-6-oxo-1,6-dihydro-3-pyridazinyl)-6-phenyl-3-pyridyl]acetamide]",207 to 208
22,"CC(C)n1nc(-c2cc(-n3cccc3)cnc2-c2ccccc2)ccc1=O [Example 29, 2-isopropyl-6-[2-phenyl-5-(1H-pyrrol-1-yl)-3-pyridyl]-3(2H)-pyridazinone]",189 to 190
